Measured values as given in patent US20090047408A1, “Method for Improving Absorbability of Epigallocatechin Gallate, Foods, Drinks and Food/Drink Materials Using the Same and Method for Producing the Same” (ITO EN, LTD, priority 2005, published 2009).

Experiments:
Assay type in all cases: in vivo
[1] = Changes in blood concentration over time of orally ingested EGCg and caffeine in humans; conditions: oral ingestion
[2] = Absorbability of EGCg in rats: blood EGCg level after oral administration of caffeine and EGCg solutions (chemiluminescence-HPLC); conditions: average of six rats
Experimental: Teavigo, manufactured by DSM Nutritional Products) in 1 ml of water were prepared. In accordance with Experimental plots 1 to 7 shown in Table 1, the solution of caffeine and the solution of EGCg were orally administered to rats. After 60 minutes from the administration, the blood EGCG level in rats was measured by chemiluminescence-HPLC. The measurement was subjected by using six rats for each Experimental plot. The relationship between the C/E ratio and the blood EGCg level is graphically represented in accordance with Table 1, which is shown as FIG. 1. […] When the C/E ratio is lower or higher than that, the blood EGCg level is reduced.

[3] = Absorbability of EGCg in humans: blood EGCg level after drinking drinks A to C (chemiluminescence-HPLC)
Experimental: Caffeine formulation (manufactured by […] Pharmaceutical Co., Ltd.), EGCg formulation (content of EGCg: 90% or more, trade name: Teavigo, manufactured by DSM Nutritional Products), ascorbic acid and citric acid were added in the amounts shown in Table 2, respectively, to 190 ml of water, which were dissolved. Thereafter, each of the resulting mixtures was poured into a can, respectively, which was sealed and sterilized by heat and then drinks A to C were prepared. […] Each of subjects drank one of the drinks […] minutes after the drinking was measured by chemiluminescence-HPLC. The measurement was subjected in three subjects for each drink. The relationship between the C/E ratio and the blood EGCg level is graphically represented in accordance with Table 2, which is shown as FIG. 2. According to Table 2, the blood EGCg level of subjects is the highest in the case that the drink B having the C/E ratio of 0.4 has been taken by the subjects, and the blood EGCg level falls in either case where the C/E ratio is lower or higher than that.

Row | Blood EGCg level ([2]; Exp. plot 1: rats, caffeine 0 mg + EGCg 30 mg, C/E ratio 0, 60 minutes after administration) [pmol/mL] | Blood EGCg level ([2]; Exp. plot 2: rats, caffeine 3 mg + EGCg 30 mg, C/E ratio 0.1, 60 minutes after administration) [pmol/mL] | Blood EGCg level ([2]; Exp. plot 3: rats, caffeine 6 mg + EGCg 30 mg, C/E ratio 0.2, 60 minutes after administration) [pmol/mL] | Blood EGCg level ([2]; Exp. plot 4: rats, caffeine 15 mg + EGCg 30 mg, C/E ratio 0.5, 60 minutes after administration) [pmol/mL] | Blood EGCg level ([2]; Exp. plot 5: rats, caffeine 30 mg + EGCg 30 mg, C/E ratio 1.0, 60 minutes after administration) [pmol/mL] | Blood EGCg level ([2]; Exp. plot 6: rats, caffeine 45 mg + EGCg 30 mg, C/E ratio 1.5, 60 minutes after administration) [pmol/mL] | Blood EGCg level ([2]; Exp. plot 7: rats, caffeine 65 mg + EGCg 30 mg, C/E ratio 2.2, 60 minutes after administration) [pmol/mL] | Absorbability of EGCg relative to EGCg alone ([3]; C/E ratio 0.18 to 0.70) [times] | Absorbability of EGCg relative to normal green tea infusion ([3]; C/E ratio 0.18 to 0.70) [times] | Absorbability of EGCg relative to EGCg alone ([3]; C/E ratio 0.20 to 0.60) [times] | Absorbability of EGCg relative to normal green tea infusion ([3]; C/E ratio 0.20 to 0.60) [times] | Increase of absorbability of EGCg relative to normal tea ([3]; optimized C/E ratio, maximum) | SMILES | Time at which blood concentration reaches a maximum value [1]
1 |  |  |  |  |  |  |  |  |  |  |  |  | Cn1c(=O)c2c(ncn2C)n(C)c1=O [caffeine, reference compound] | about 1.5 hours
2 | 229 | 243 | 270 | 221 | 153 | 90 | 94 | ≥ 1.7 | ≥ 1.1 | ≥ 1.75 | ≥ 1.15 | up to 1.2 times | O=C(O[C@@H]1Cc2c(O)cc(O)cc2O[C@@H]1c1cc(O)c(O)c(O)c1)c1cc(O)c(O)c(O)c1 [EGCg, epigallocatechin gallate] | about 1.5 hours
